Columns and labels:
[1] = Storage stability of inks (precipitation); format: physicochemical; set-up: key: ⊕: No precipitation; .diamond.: Slight precipitation; .O slashed.: Heavy precipitation; settings: ink, 0° C, 30 days, hermetically sealed bottles
Experimental: (§1) 100 g of each ink were prepared by heating the necessary components from Table 3 (all amounts are indicated in grams) together with water at a temperature of 50° C. under stirring for one hour. The resulting solution was cooled down to 20° C., its pH value was adjusted to 7.5 and the solution was passed through a Millipore® filter of 0.5 μm pore diameter.
The inks were stored at a temperature of 0° C. for 30 days in hermetically sealed bottles. The quantity of precipitate eventually formed was evaluated in the following way: […]

[2] = Jetting stability of inks (IRIS ink jet printer nozzle); set-up: key: ⊕: Unchanged; .diamond.: Slightly changed; .O slashed.: Heavily changed; settings: 100 hours continual jetting, exit angle and nozzle condition
Experimental: as §1
The inks were expelled continually during 100 hours from a nozzle of the IRIS ink jet printer. Afterwards the change of the exit angle of the ink stream and the condition of the nozzle were evaluated in the following way: […]

[3] = Hydrolysis stability (pH change of 5% aqueous dye solution on storage); format: physicochemical; settings: for pH change during storage: 5% by weight aqueous solution, initial pH 7.0, 60° C, 30 days; for Stability against hydrolysis compared with known dye (2) (in words): comparison with dye (2), Table 4
Experimental: An aqueous solution (5% by weight) was prepared and the pH value of this solution was adjusted to 7.0. The solution was filtered through a Millipore® filter of 0.5 μm pore diameter. The filtered solution was then heated to a temperature of 60° C. for 30 days, cooled down afterwards to a temperature of 20° C. and the pH value was measured again. The difference of the pH values before and after storage is an indicator of hydrolysis stability.

[4] = Dye solubility in deionised water (spectroscopic determination in filtered solution); format: physicochemical; settings: for Solubility compared with previously known dye (in words): comparison with known dye, Table 4; for Solubility: deionised water, stirred 1 hour at 50° C, cooled to 20° C, filtered
Experimental: An excess of dye was dispersed in deionised water and this dispersion was stirred for 1 hour at 50° C. Then the mixture was cooled down to 20° C., centrifuged and filtered through a Millipore® filter of 0.5 μm pore diameter. Dye solubility was determined spectroscopically in the filtered solution.

Row | Compound | (C) Storage stability [1] | (D) Jetting stability [2] | pH change during storage [3] | Stability against hydrolysis compared with known dye (2) (in words) [3] | Solubility compared with previously known dye (in words) [4] | Solubility [4] [g per 100 ml]
1 | CCOc1nc(Nc2ccc(N=Nc3c(N)ccc4cc(S(=O)(=O)O)cc(O)c34)c(S(=O)(=O)O)c2)nc(SCCCS(=O)(=O)O)n1 [(113)] | ⊕ | ⊕ | -0.1 | much better stability against hydrolysis than the known dye (2) | considerably higher solubility than the previously known dye (2) | 32
2 | COc1cc(N=Nc2cc(S(=O)(=O)O)c3cccc(S(=O)(=O)O)c3c2)c(C)cc1Nc1nc(SCCCS(=O)(=O)O)nc(SCCCS(=O)(=O)O)n1 [(2)] | ⊕ | ⊕ | -0.5 | – | – | 34
3 | COc1cc(N=Nc2cc(S(=O)(=O)O)c3cccc(S(=O)(=O)O)c3c2)c(C)cc1Nc1nc(SCCCS(=O)(=O)O)nc(N(C)CCO)n1 [(120)] | ⊕ | ⊕ | 0 | much better stability against hydrolysis than the known dye (2) | considerably higher solubility than the previously known dye (2) | 34
4 | CCN(c1ccccc1)c1nc(Nc2cc(S(=O)(=O)O)cc3cc(S(=O)(=O)O)c(N=Nc4ccccc4S(=O)(=O)O)c(O)c23)nc(SCCCS(=O)(=O)O)n1 [(117)] | ⊕ | ⊕ | – | – | – | –
5 | Nc1ccc2cc(S(=O)(=O)O)cc(O)c2c1N=Nc1ccc(Nc2nc(NCCO)nc(Nc3cccc(S(=O)(=O)O)c3)n2)cc1S(=O)(=O)O [(1)] | .diamond. | .diamond. | -0.2 | – | – | 12
6 | Nc1ccc2cc(S(=O)(=O)O)cc(O)c2c1N=Nc1ccc(Nc2nc(SCCCS(=O)(=O)O)nc(N(CCO)CCO)n2)cc1S(=O)(=O)O [(121)] | ⊕ | ⊕ | -0.1 | much better stability against hydrolysis than the known dye (2) | considerably higher solubility than the previously known dye (2) | 38
7 | CCOc1nc(Nc2cc(C)c(N=Nc3cc(S(=O)(=O)O)c4cccc(S(=O)(=O)O)c4c3)cc2OC)nc(SCCCS(=O)(=O)O)n1 [(100)] | ⊕ | ⊕ | 0 | much better stability against hydrolysis than the known dye (2) | considerably higher solubility than the previously known dye (2) | 32

Source: patent publication US6068687A, “Azo dyes and their preparation and use” (Ilford Imaging Switzerland GmbH, priority 1997, dated 2000)
